Assay results published in patent publication US9822099B2, “Triazole derivatives” (priority 2013, dated 2017).
Like-named read-outs stand apart in the source and are kept apart here. Marks after values point to notes of the source that are not given here.

What was measured:
Septoria tritici = assay: Example D: in vivo preventive test on Septoria tritici (leaf spot on wheat); settings: wheat plants, preventive spray, evaluated 24 days after inoculation
Experimental: (§1) The young plants of wheat are treated by spraying the active ingredient prepared as described above. Control plants are treated only with an aqueous solution of acetone/Dimethyl sulfoxide/Tween®. After 24 hours, the plants are contaminated by spraying the leaves with an aqueous suspension of Septoria tritici spores.

Sphaerotheca fuliginea = assay: Example E: in vivo preventive test on Sphaerotheca fuliginea (powdery mildew on cucurbits); settings: gherkin plants, preventive spray, evaluated 15 days after inoculation
Experimental: as §1, with “gherkin” for “wheat”, “Sphaerotheca fuliginea” for “Septoria tritici”

Uromyces appendiculatus = assay: Example F: in vivo preventive test on Uromyces appendiculatus (bean rust); settings: 100 ppm of active ingredient; bean plants, preventive spray; evaluated 11 days after inoculation
Experimental: as §1, with “bean” for “wheat”, “Uromyces appendiculatus” for “Septoria tritici”

[1] = method [a]: LC-MS at pH 2.7, 0.1% formic acid in water / acetonitrile gradient
[2] = method [b]: LC-MS at pH 7.8, 0.001 molar ammonium hydrogen carbonate in water / acetonitrile gradient

Row | LogP (pH 2.7) | Compound | LogP [1] | other results
1 |  | Clc1ccc(CC2(C3(Cl)CC3)CO2)cn1 (centres unmarked) [XII-2] | 2.84 | LogP [2]: 2.83
2 |  | O=C(Cc1cc(Cl)nc(Cl)c1)C1(Cl)CC1 [Example V-5] | 3.25^[a] | 
3 | 1.89^[a] | OC(Cc1c(Cl)cncc1Cl)(Cn1cncn1)c1ccc(Cl)nc1 (racemic) [Example I-63] |  | 
4 |  | CC1(C(=O)Cc2cccnc2Cl)CC1 [Example V-9] | 1.96^[a] | 
5 |  | O=C(Cc1ccc(Cl)nc1)C1(Cl)CC1 [Example V-6] | 2.34^[a] | LogP [2]: 2.30^[b];
6 | 2.27^[a] | OC(Cc1cccc(Cl)c1)(Cc1ccncc1Cl)Cn1cncn1 (centres unmarked) [Example I-15] |  | Eff. % (Septoria tritici; 100 ppm of active ingredient): 94%; Eff. % (Sphaerotheca fuliginea; 100 ppm of active ingredient): 98%
7 |  | FC1(C2(Cc3ccnc(Cl)c3)CO2)CC1 (centres unmarked) [XII-9] | 2.27^[a] | 
8 | 1.23^[a] | OC(Cc1ccnc(Cl)c1F)(Cn1cncn1)c1ccc(Cl)nc1 (racemic) [Example I-86] |  | Eff. % (Septoria tritici; 500 ppm of active ingredient): 72%
9 |  | Fc1cc(CC2(C3(F)CC3)CO2)c(Cl)cn1 (centres unmarked) [XII-21] | 2.80^[a] | 
10 |  | Clc1cc(CC2(C3(Cl)CC3)CO2)cc(Cl)n1 (centres unmarked) [XII-24] | 3.80^[a] | 
11 | 1.72^[a] | OC(Cc1cncc(Cl)n1)(Cn1cncn1)C1(Cl)CC1 (centres unmarked) [Example I-9] |  | Eff. % (Sphaerotheca fuliginea; 100 ppm of active ingredient): 94%
12 |  | O=C(Cc1ccncc1Cl)C1(F)CC1 [Example V-7] | 1.76^[a] | 
13 | 1.26^[a] | OC(Cc1ccncc1Cl)(Cn1cncn1)c1ccc(Cl)nc1 (centres unmarked) [Example I-13] |  | Eff. % (Uromyces appendiculatus): 95%; Eff. % (Sphaerotheca fuliginea; 100 ppm of active ingredient): 94%
14 |  | Fc1cnccc1CC1(C2(F)CC2)CO1 (centres unmarked) [XII-7] | 1.63^[a] | 
15 |  | O=C(Cc1cccnc1F)C1(Cl)CC1 [Example V-16] | 2.07^[a] | 
16 |  | O=C(Cc1cccnc1)C1(Cl)CC1 [Example V-19] | 0.23^[a] | 
17 | 2.05^[a] | Cc1cnc(CC(O)(Cn2cncn2)C2(Cl)CC2)c(Cl)n1 (centres unmarked) [Example I-10] |  | Eff. % (Sphaerotheca fuliginea; 100 ppm of active ingredient): 75%
18 | 2.69^[a] | OC(Cc1cccc(Cl)c1)(Cc1cc(Cl)ncc1F)Cn1cncn1 (racemic) [Example I-74] |  | Eff. % (Septoria tritici; 500 ppm of active ingredient): 100%; Eff. % (Sphaerotheca fuliginea; 500 ppm of active ingredient): 100%
19 | 1.13^[a] | OC(Cc1cnccn1)(Cn1cncn1)C1(Cl)CC1 (centres unmarked) [Example I-11] |  | Eff. % (Uromyces appendiculatus): 75%; Eff. % (Sphaerotheca fuliginea; 100 ppm of active ingredient): 79%
20 |  | CC(CF)(CF)C1(Cc2ccncc2F)CO1 (centres unmarked) [XII-8] | 1.79^[a] | 
21 |  | CC(C)(F)C(=O)Cc1ccncc1Cl [Example V-8] | 1.97^[a] | 

Row | LogP (pH 2.7) | Compound | LogP [1] | other results
22 | 1.35^[a] | OC(Cc1ccnc(Cl)c1)(Cn1cncn1)c1cccnc1Cl (centres unmarked) [Example I-34] |  | Eff. % (Sphaerotheca fuliginea; 100 ppm of active ingredient): 100%
23 |  | Fc1c(CC2(C3(F)CC3)CO2)ccnc1Cl (centres unmarked) [XII-28] | 2.53^[a] | 
24 |  | CC(CF)(CF)C1(Cc2c(Cl)cncc2Cl)CO1 (centres unmarked) [XII-33] | 2.89^[a] | 
25 | 1.73^[a] | OC(Cc1ccccc1F)(Cc1ccnc(Cl)c1F)Cn1cncn1 (racemic) [Example I-85] |  | Eff. % (Septoria tritici; 500 ppm of active ingredient): 78%; Eff. % (Sphaerotheca fuliginea; 500 ppm of active ingredient): 89%
26 | 2.23^[a] | OC(Cc1ccncc1Cl)(Cn1cncn1)C1(c2ccccc2)CC1 (racemic) [Example I-78] |  | 
27 |  | Clc1cncc(Cl)c1CC1(C2(Cl)CC2)CO1 (centres unmarked) [XII-32] | 3.68^[a] | 
28 | 2.73^[a] | OC(Cc1nc(Cl)ccc1Cl)(Cn1cncn1)C1(Cl)CC1 (centres unmarked) [Example I-96] |  | 
29 |  | FC1(C2(Cc3ccncc3Cl)CO2)CC1 (centres unmarked) [XII-19] | 2.06^[a] | 
30 |  | CC(CF)(CF)C1(Cc2ccnc(Cl)c2F)CO1 (centres unmarked) [XII-27] | 2.65^[a] | 
31 |  | Fc1cnc(Cl)cc1CC1(C2(F)CC2)CO1 (centres unmarked) [XII-13] | 2.57^[a] | 
32 | 2.06^[a] | OC(Cc1ccnc(Cl)c1)(Cc1ccccc1F)Cn1cncn1 (centres unmarked) [Example I-35] |  | Eff. % (Sphaerotheca fuliginea; 100 ppm of active ingredient): 78%
33 |  | O=C(Cc1cnc2ccccc2c1)C1(Cl)CC1 [Example V-13] | 1.60^[a] | 
34 |  | CC(C)(Cl)C1(Cc2ccncc2Cl)CO1 (centres unmarked) [XII-15] | 2.57^[a] | 
35 |  | Clc1cnccc1CC1(C2(Cl)CCCCC2)CO1 (centres unmarked) [XII-17] | 3.80^[a] | 
36 | 2.88^[a] | OC(Cc1ncc(Cl)cc1Cl)(Cn1cncn1)C1(Cl)CC1 (centres unmarked) [Example I-97] |  | 
37 |  | Clc1cccnc1CC1(C2(Cl)CC2)CO1 (centres unmarked) [XII-4] | 2.69^[a] | 
38 | 2.34^[a] | OC(Cc1ccccc1F)(Cc1cc(Cl)ncc1F)Cn1cncn1 (racemic) [Example I-73] |  | Eff. % (Septoria tritici; 500 ppm of active ingredient): 100%; Eff. % (Sphaerotheca fuliginea; 500 ppm of active ingredient): 100%
39 |  | Clc1cc(CC2(C3(Cl)CC3)CO2)ccn1 (centres unmarked) [XII-11] | 2.80^[a] | 
40 | 1.96^[a] | OC(Cc1ccccc1F)(Cc1ccncc1Cl)Cn1cncn1 (centres unmarked) [Example I-12] |  | Eff. % (Septoria tritici; 100 ppm of active ingredient): 88%; Eff. % (Sphaerotheca fuliginea; 100 ppm of active ingredient): 100%
41 | 1.38^[a] | OC(Cc1ccnc(Cl)c1)(Cn1cncn1)c1ccc(Cl)nc1 (centres unmarked) [Example I-38] |  | Eff. % (Sphaerotheca fuliginea; 100 ppm of active ingredient): 100%
42 |  | Clc1ccnc(Cl)c1CC1(C2(Cl)CC2)CO1 (centres unmarked) [XII-40] | 3.53^[a] | 

Row | LogP (pH 2.7) | Compound | LogP [1] | other results
43 |  | Clc1ncccc1CC1(C2(Cl)CC2)CO1 (centres unmarked) [XII-5] | 2.69^[a] | 
44 |  | Fc1c(CC2(C3(Cl)CC3)CO2)ccnc1Cl (centres unmarked) [XII-26] | 3.11^[a] | 
45 |  | O=C(Cc1c(Cl)ccnc1Cl)C1(Cl)CC1 [Example V-20] | 2.96^[a] | 
46 |  | O=C(Cc1cccnc1Cl)C1(c2ccccc2)CC1 [Example V-10] | 3.00^[a] | 
47 |  | CC1(C(=O)Cc2ccncc2Cl)CC1 [Example V-11] | 1.85^[a] | 
48 |  | ClC1(C2(Cc3ccncn3)CO2)CC1 (centres unmarked) [XII-25] | 1.44^[a] | 
49 |  | ClC1(C2(Cc3ccc4ccccc4n3)CO2)CC1 (centres unmarked) [XII-1] | 1.74^[a] | 
50 |  | Clc1cc(CC2(C3(Cl)CC3)CO2)c(Cl)cn1 (centres unmarked) [XII-42] | 3.70^[a] | 
51 |  | Clc1ccc(CC2(C3(Cl)CC3)CO2)c(Cl)n1 (centres unmarked) [XII-30] | 3.71^[a] | 
52 |  | CC(CF)(CF)C1(Cc2ccnc(Cl)c2)CO1 (centres unmarked) [XII-10] | 2.38^[a] | 
53 |  | FC1(C2(Cc3c(Cl)cncc3Cl)CO2)CC1 (centres unmarked) [XII-34] | 2.93^[a] | 
54 | 2.42^[a] | OC(Cc1cccc(Cl)c1)(Cc1ccnc(Cl)c1)Cn1cncn1 (centres unmarked) [Example I-37] |  | 
55 |  | Fc1ncccc1CC1(C2(Cl)CC2)CO1 (centres unmarked) [XII-31] | 2.47^[a] | 
56 |  | Clc1cnccc1CC1(C2(Cl)CCCC2)CO1 (centres unmarked) [XII-16] | 3.42^[a] | 
57 | 2.54^[a] | OC(Cc1cc(Cl)nc(Cl)c1)(Cn1cncn1)C1(Cl)CC1 (centres unmarked) [Example I-26] |  | Eff. % (Septoria tritici; 100 ppm of active ingredient): 97%; Eff. % (Sphaerotheca fuliginea; 100 ppm of active ingredient): 100%
58 |  | CC(CF)(CF)C1(Cc2ccncc2Cl)CO1 (centres unmarked) [XII-18] | 2.16^[a] | 
59 |  | Fc1cc(CC2(C3(Cl)CC3)CO2)c(Cl)cn1 (centres unmarked) [XII-20] | 3.41^[a] | 
60 |  | Fc1cnccc1CC1(C2(Cl)CC2)CO1 (centres unmarked) [XII-6] | 2.13^[a] | 
61 |  | O=C(Cc1ccc2ccccc2n1)C1(Cl)CC1 [Example V-1] | 3.39^[a] | 
62 | 1.28^[a] | CC1(C(O)(Cc2ccnnc2Cl)Cn2cncn2)CC1 (centres unmarked) [Example I-93] |  | 
63 |  | Fc1cnc(Cl)cc1CC1(C2(Cl)CC2)CO1 (centres unmarked) [XII-14] | 3.15^[a] | 

Row | LogP (pH 2.7) | Compound | LogP [1] | other results
64 | 1.57^[a] | OC(Cc1cc(Cl)ncc1F)(Cn1cncn1)c1cccnc1Cl (centres unmarked) [Example I-43] |  | Eff. % (Sphaerotheca fuliginea; 100 ppm of active ingredient): 100%
65 |  | Cc1cccc2cc(CC3(C4(Cl)CC4)CO3)c(Cl)nc12 (centres unmarked) [XII-39] | 4.90^[a] | 
66 | 2.75^[a] | C[Si](C)(C)OC(Cc1cnccn1)(Cn1cncn1)C1(Cl)CC1 (centres unmarked) [Example I-28] |  | 
67 |  | O=C(Cc1cc(Cl)cnc1Cl)C1(Cl)CC1 [Example V-21] | 3.12^[a] | 
68 |  | CC(CF)(CF)C1(Cc2cc(F)ncc2Cl)CO1 (centres unmarked) [XII-22] | 2.84^[a] | 
69 |  | FC1(C2(Cc3cccnc3Cl)CO2)CC1 (centres unmarked) [XII-23] | 2.18^[a] | 
70 | 2.00^[a] | OC(Cc1cccc(Cl)c1)(Cc1ccncc1F)Cn1cncn1 (centres unmarked) [Example I-22] |  | Eff. % (Septoria tritici; 100 ppm of active ingredient): 88%
71 | 1.63^[a] | OC(Cc1ccccc1F)(Cc1ccncc1F)Cn1cncn1 (centres unmarked) [Example I-20] |  | 
72 |  | Clc1cnc(Cl)c(CC2(C3(Cl)CC3)CO2)c1 (centres unmarked) [XII-41] | 3.87^[a] | 
73 |  | FC(F)(F)c1cnccc1CC1(C2(Cl)CC2)CO1 (centres unmarked) [XII-38] | 3.04^[a] | 
74 |  | O=C(Cc1ccncc1Cl)C1(Cl)CC1 [Example V-4] | 2.13^[a] | 
75 | 2.69^[a] | OC(Cc1cc(Cl)nc2ccccc12)(Cn1cncn1)C1(Cl)CC1 (centres unmarked) [Example I-92] |  | 
76 |  | O=C(Cc1ncccc1Cl)C1(Cl)CC1 [Example V-2] | 2.40^[a] | 
77 | 1.60^[a] | OC(Cc1cc(Cl)ncc1F)(Cn1cncn1)c1ccc(Cl)nc1 (centres unmarked) [Example I-42] |  | Eff. % (Sphaerotheca fuliginea; 100 ppm of active ingredient): 98%
78 |  | Cc1cccc2cc(CC(=O)C3(Cl)CC3)c(Cl)nc12 [Example V-18] | 4.14^[a] | 
79 |  | CC(CF)(CF)C1(Cc2cc(Cl)ncc2F)CO1 (centres unmarked) [XII-12] | 2.69^[a] | 
80 |  | O=C(Cc1ccc(Cl)nc1Cl)C1(Cl)CC1 [Example V-17] | 3.19^[a] | 
81 | 0.84^[a] | Cc1cc(C(O)(Cc2ccncc2Cl)Cn2cncn2)nn1C (racemic) [Example I-66] |  | Eff. % (Septoria tritici; 500 ppm of active ingredient): 92%; Eff. % (Sphaerotheca fuliginea; 500 ppm of active ingredient): 80%
82 |  | CC1(C(=O)Cc2ccncc2Cl)CCCCC1 [Example V-12] | 3.23^[a] | 
83 | 0.52^[a] | Cc1ccnc(CC(O)(Cn2cncn2)C2(Cl)CC2)c1 (centres unmarked) [Example I-52] |  | 
84 | 2.02^[a] | OC(Cc1cc(Cl)ccn1)(Cn1cncn1)C1(Cl)CC1 (centres unmarked) [Example I-47] |  | 
